Reference: PubChem BioAssay (NCI)
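Growth conditions: 96-well plates. Treatment: test compound, 48 hours, 5 concentrations. Analysis: linear interpolation between bracketing concentrations; unreached endpoints set to highest concentration. TGI: concentration producing complete growth inhibition.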

Key:
Assay in all cases: DTP human tumour cell line panel, 48 h
DLD-1 colon = test system: DLD-1 colon
NCI-H226 lung = test system: NCI-H226 lung
M19-MEL melanoma = test system: M19-MEL melanoma
ACHN renal = test system: ACHN renal
COLO 205 colon = test system: COLO 205 colon
SR leukemia = test system: SR leukemia
HT29 colon = test system: HT29 colon
KM12 colon = test system: KM12 colon
RPMI-8226 leukemia = test system: RPMI-8226 leukemia
UACC-62 melanoma = test system: UACC-62 melanoma
NCI-H23 lung = test system: NCI-H23 lung
NCI-H460 lung = test system: NCI-H460 lung
SK-OV-3 ovarian = test system: SK-OV-3 ovarian
UACC-257 melanoma = test system: UACC-257 melanoma
UO-31 renal = test system: UO-31 renal
IGROV1 ovarian = test system: IGROV1 ovarian
K-562 leukemia = test system: K-562 leukemia
LXFL 529 NSCLC = test system: LXFL 529 NSCLC
SF-268 CNS = test system: SF-268 CNS
SF-295 CNS = test system: SF-295 CNS
SK-MEL-5 melanoma = test system: SK-MEL-5 melanoma
SNB-75 CNS = test system: SNB-75 CNS
SNB-19 CNS = test system: SNB-19 CNS
NCI-H522 lung = test system: NCI-H522 lung
TK-10 renal = test system: TK-10 renal
HOP-62 NSCLC = test system: HOP-62 NSCLC
MOLT-4 leukemia = test system: MOLT-4 leukemia
U251 CNS = test system: U251 CNS
HCC-2998 colon = test system: HCC-2998 colon
OVCAR-5 ovarian = test system: OVCAR-5 ovarian
CCRF-CEM leukemia = test system: CCRF-CEM leukemia
SK-MEL-28 melanoma = test system: SK-MEL-28 melanoma
HCT-116 colon = test system: HCT-116 colon
HL-60(TB) leukemia = test system: HL-60(TB) leukemia
OVCAR-8 ovarian = test system: OVCAR-8 ovarian
SF-539 CNS = test system: SF-539 CNS
HOP-92 NSCLC = test system: HOP-92 NSCLC
A549 NSCLC = test system: A549 NSCLC
SW-620 colon = test system: SW-620 colon
OVCAR-3 ovarian = test system: OVCAR-3 ovarian
OVCAR-4 ovarian = test system: OVCAR-4 ovarian
SNB-78 CNS = test system: SNB-78 CNS
EKVX NSCLC = test system: EKVX NSCLC
DMS 114 small cell lung = test system: DMS 114 small cell lung
SN12C renal = test system: SN12C renal
M14 melanoma = test system: M14 melanoma
CAKI-1 renal = test system: CAKI-1 renal
KM20L2 colon = test system: KM20L2 colon
LOX IMVI melanoma = test system: LOX IMVI melanoma
MALME-3M melanoma = test system: MALME-3M melanoma
SK-MEL-2 melanoma = test system: SK-MEL-2 melanoma
HCT-15 colon = test system: HCT-15 colon
RXF 393 renal = test system: RXF 393 renal
786-0 renal = test system: 786-0 renal
XF 498 CNS = test system: XF 498 CNS
HOP-18 NSCLC = test system: HOP-18 NSCLC
A498 renal = test system: A498 renal
DMS 273 small cell lung = test system: DMS 273 small cell lung

COc1ccc(/C=N/n2cnc3c(sc(=S)n3-c3ccccc3)c2=O)cc1
TGI (DLD-1 colon): > 100 µM | TGI (NCI-H226 lung): 54.4 µM | TGI (M19-MEL melanoma): > 100 µM | TGI (ACHN renal): > 100 µM | TGI (COLO 205 colon): > 100 µM | TGI (SR leukemia): > 100 µM | TGI (HT29 colon): > 100 µM | TGI (KM12 colon): > 100 µM | TGI (RPMI-8226 leukemia): 58.8 µM | TGI (UACC-62 melanoma): 49.8 µM | TGI (NCI-H23 lung): 87.3 µM | TGI (NCI-H460 lung): > 100 µM | TGI (SK-OV-3 ovarian): 58.6 µM | TGI (UACC-257 melanoma): > 100 µM | TGI (UO-31 renal): > 100 µM | TGI (IGROV1 ovarian): > 100 µM | TGI (K-562 leukemia): 48.8 µM | TGI (LXFL 529 NSCLC): 48.8 µM | TGI (SF-268 CNS): 38.8 µM | TGI (SF-295 CNS): 31.5 µM | TGI (SK-MEL-5 melanoma): > 100 µM | TGI (SNB-75 CNS): 7.87 µM | TGI (SNB-19 CNS): 77.5 µM | TGI (NCI-H522 lung): 30.1 µM | TGI (TK-10 renal): 65.4 µM | TGI (HOP-62 NSCLC): 37.3 µM | TGI (MOLT-4 leukemia): 90.9 µM | TGI (U251 CNS): > 100 µM | TGI (HCC-2998 colon): > 100 µM | TGI (OVCAR-5 ovarian): > 100 µM | TGI (CCRF-CEM leukemia): 57.8 µM | TGI (SK-MEL-28 melanoma): 38.6 µM | TGI (HCT-116 colon): > 100 µM | TGI (HL-60(TB) leukemia): 37.9 µM | TGI (OVCAR-8 ovarian): > 100 µM | TGI (SF-539 CNS): 28.5 µM | TGI (HOP-92 NSCLC): 29.6 µM | TGI (A549 NSCLC): > 100 µM | TGI (SW-620 colon): > 100 µM | TGI (OVCAR-3 ovarian): 38.1 µM

COc1ccc(OC)c2c1CC(C(=O)O)(C(=O)O)CC2=O
TGI (NCI-H226 lung): > 100 µM | TGI (ACHN renal): > 100 µM | TGI (OVCAR-4 ovarian): > 100 µM | TGI (KM12 colon): > 100 µM | TGI (UACC-62 melanoma): > 100 µM | TGI (NCI-H23 lung): > 100 µM | TGI (SK-OV-3 ovarian): > 100 µM | TGI (SNB-78 CNS): > 100 µM | TGI (EKVX NSCLC): > 100 µM | TGI (UO-31 renal): > 100 µM | TGI (IGROV1 ovarian): > 100 µM | TGI (K-562 leukemia): > 100 µM | TGI (LXFL 529 NSCLC): > 100 µM | TGI (DMS 114 small cell lung): > 100 µM | TGI (SF-268 CNS): > 100 µM | TGI (SN12C renal): > 100 µM | TGI (M14 melanoma): > 100 µM | TGI (CAKI-1 renal): > 100 µM | TGI (SK-MEL-5 melanoma): > 100 µM | TGI (SNB-75 CNS): > 100 µM | TGI (KM20L2 colon): > 100 µM | TGI (SNB-19 CNS): > 100 µM | TGI (LOX IMVI melanoma): > 100 µM | TGI (TK-10 renal): > 100 µM | TGI (MALME-3M melanoma): > 100 µM | TGI (HOP-62 NSCLC): > 100 µM | TGI (MOLT-4 leukemia): > 100 µM | TGI (U251 CNS): > 100 µM | TGI (SK-MEL-2 melanoma): > 100 µM | TGI (HCC-2998 colon): > 100 µM | TGI (OVCAR-5 ovarian): > 100 µM | TGI (SK-MEL-28 melanoma): > 100 µM | TGI (HCT-116 colon): > 100 µM | TGI (HL-60(TB) leukemia): > 100 µM | TGI (HCT-15 colon): > 100 µM | TGI (HOP-92 NSCLC): > 100 µM | TGI (RXF 393 renal): > 100 µM | TGI (A549 NSCLC): > 100 µM | TGI (786-0 renal): > 100 µM | TGI (SW-620 colon): > 100 µM | TGI (OVCAR-3 ovarian): > 100 µM

O=C(O)CCCCCCC[C@H]1S[C@H]1CCCCCCO
TGI (DLD-1 colon): > 100 µM | TGI (M19-MEL melanoma): > 100 µM | TGI (COLO 205 colon): > 100 µM | TGI (SR leukemia): > 100 µM | TGI (HT29 colon): > 100 µM | TGI (OVCAR-4 ovarian): > 100 µM | TGI (KM12 colon): > 100 µM | TGI (RPMI-8226 leukemia): > 100 µM | TGI (UACC-62 melanoma): > 100 µM | TGI (NCI-H23 lung): > 100 µM | TGI (SK-OV-3 ovarian): > 100 µM | TGI (SNB-78 CNS): > 100 µM | TGI (EKVX NSCLC): > 100 µM | TGI (UO-31 renal): > 100 µM | TGI (IGROV1 ovarian): > 100 µM | TGI (XF 498 CNS): > 100 µM | TGI (K-562 leukemia): > 100 µM | TGI (DMS 114 small cell lung): > 100 µM | TGI (SF-268 CNS): > 100 µM | TGI (M14 melanoma): > 100 µM | TGI (SF-295 CNS): > 100 µM | TGI (CAKI-1 renal): > 100 µM | TGI (SK-MEL-5 melanoma): > 100 µM | TGI (SNB-19 CNS): > 100 µM | TGI (TK-10 renal): > 100 µM | TGI (MALME-3M melanoma): > 100 µM | TGI (HOP-62 NSCLC): > 100 µM | TGI (MOLT-4 leukemia): > 100 µM | TGI (U251 CNS): > 100 µM | TGI (SK-MEL-2 melanoma): > 100 µM | TGI (HCC-2998 colon): > 100 µM | TGI (OVCAR-5 ovarian): > 100 µM | TGI (SK-MEL-28 melanoma): > 100 µM | TGI (HCT-116 colon): > 100 µM | TGI (HL-60(TB) leukemia): > 100 µM | TGI (HCT-15 colon): > 100 µM | TGI (OVCAR-8 ovarian): > 100 µM | TGI (SF-539 CNS): > 100 µM | TGI (RXF 393 renal): > 100 µM | TGI (786-0 renal): > 100 µM | TGI (OVCAR-3 ovarian): > 100 µM | TGI (HOP-18 NSCLC): > 100 µM

C[C@]12CCC(=O)C=C1CC[C@@H]1[C@@H]2[C@@H](O)C[C@@]2(C)[C@H]1CC[C@]2(O)C(=O)COC(=O)COCC(=O)O
TGI (DLD-1 colon): > 100 µM | TGI (NCI-H226 lung): > 100 µM | TGI (M19-MEL melanoma): > 100 µM | TGI (ACHN renal): > 100 µM | TGI (COLO 205 colon): > 100 µM | TGI (A498 renal): > 100 µM | TGI (HT29 colon): > 100 µM | TGI (OVCAR-4 ovarian): > 100 µM | TGI (KM12 colon): > 100 µM | TGI (RPMI-8226 leukemia): > 100 µM | TGI (UACC-62 melanoma): > 100 µM | TGI (NCI-H23 lung): > 100 µM | TGI (NCI-H460 lung): > 100 µM | TGI (SK-OV-3 ovarian): > 100 µM | TGI (SNB-78 CNS): > 100 µM | TGI (UACC-257 melanoma): > 100 µM | TGI (EKVX NSCLC): > 100 µM | TGI (UO-31 renal): > 100 µM | TGI (IGROV1 ovarian): > 100 µM | TGI (XF 498 CNS): > 100 µM | TGI (K-562 leukemia): > 100 µM | TGI (DMS 114 small cell lung): > 100 µM | TGI (SF-268 CNS): > 100 µM | TGI (SN12C renal): > 100 µM | TGI (M14 melanoma): > 100 µM | TGI (SF-295 CNS): > 100 µM | TGI (CAKI-1 renal): > 100 µM | TGI (SK-MEL-5 melanoma): > 100 µM | TGI (SNB-75 CNS): > 100 µM | TGI (KM20L2 colon): > 100 µM | TGI (SNB-19 CNS): > 100 µM | TGI (LOX IMVI melanoma): > 100 µM | TGI (NCI-H522 lung): > 100 µM | TGI (TK-10 renal): > 100 µM | TGI (MALME-3M melanoma): > 100 µM | TGI (HOP-62 NSCLC): > 100 µM | TGI (MOLT-4 leukemia): > 100 µM | TGI (U251 CNS): > 100 µM | TGI (SK-MEL-2 melanoma): > 100 µM | TGI (HCC-2998 colon): > 100 µM | TGI (OVCAR-5 ovarian): > 100 µM | TGI (CCRF-CEM leukemia): > 100 µM | TGI (SK-MEL-28 melanoma): > 100 µM | TGI (HCT-116 colon): > 100 µM | TGI (HL-60(TB) leukemia): > 100 µM | TGI (HCT-15 colon): > 100 µM | TGI (OVCAR-8 ovarian): > 100 µM | TGI (DMS 273 small cell lung): > 100 µM | TGI (SF-539 CNS): > 100 µM | TGI (HOP-92 NSCLC): > 100 µM | TGI (A549 NSCLC): > 100 µM | TGI (786-0 renal): > 100 µM | TGI (SW-620 colon): > 100 µM | TGI (OVCAR-3 ovarian): > 100 µM | TGI (HOP-18 NSCLC): > 100 µM
